Read-outs that look alike come from different tables or passages of the source.
How the values were obtained:
[1] = biological target: T1, alpha-synucleinopathy of PD brain (Homo sapiens, UniProt P37840); assay: In vitro autoradiography of [^3H]-2 on PD brain sections with IHC comparison; assay type: binding; settings: PD brain amygdala section, 3 nM radioligand
T1 construct: They are post-mortem tissue from donors with clinical diagnosis of PD or non-PD; tissue Banner Sun Health Institute; Sydney Brain Bank; Analytic Biological Services Inc; Discovery Life Science; host or cells: human PD cerebral cortex homogenates (A4); human PD amygdala cryosections (A5)
Experimental: (§1) To assess presence of alpha synucleinopathy (Lewy body, LB and Lewy neurites, LN) in the tested human brain samples, the adjacent human PD brain slices were used for Autoradiography (ARG) and Immunihistochemistry (1HC) studies. ARG was done using radio-labelled compounds which bind to LB and LN of PD brain sections. 1HC was performed with antibodies for LB & LN (LB509), Aβ (6E10) and p-tau (AT8). Tissue homogenate binding was performed using human PD brain homogenates of cerebral cortex. Human brains from donor without neurological disorder were used as control in the same study.
The frozen human brain samples of Parkinson's disease (PD) were provided by Banner Sun Health Institute (USA) and Sydney Brain Bank (Australia) through collaboration with Michael J Fox Foundation (MJFF). Additional PD and non-PD brain samples were purchased from vendors (Analytic Biological Services Inc., ABS, and Discovery Life Science, DLS). […] Total binding of radioligand in a brain slice was defined in the absence of competitor, and non-displaceable binding (NDB) was determined in the presence of competitor (1.0 μM unlabeled selfblock). […] After three weeks exposure, the plates were scanned in Amersham Typhoon Imager, and the scanned images were analyzed using MCID 7.1 software. [^3H]-microscales (Amersham Biosciences, GE), were used for quantification of radioligand binding density. […]

[2] = biological target: human Parkinson's Disease tissue homogenates (Homo sapiens, UniProt P37840); assay: Hot saturation binding of [^3H]-2 in human PD cerebral cortex homogenates; settings: PD Cortex (n = 5)
Experimental: as §1
The frozen human brain samples of Parkinson's disease (PD) were provided by Banner Sun Health Institute (USA) and Sydney Brain Bank (Australia) through collaboration with Michael J Fox Foundation (MJFF). […]
[^3H]-2 was synthesized by Radio Compound Labelling Synthesis Group at Merck. […] Total binding was defined in the absence of competing compound, and non-displaceable binding was determined in the presence of 1 μM unlabeled self-block. […]
Incubation was carried out at 37° C. for 120 minutes, and then the assay samples were filtered onto GF/C filters using Skatron 12 well harvester, washing on setting 5-5-5 (~3×2 ml) ice cold buffer (Tris, pH 7.5). […] Add liquid scintillation fluid (2 mL Ultima Gold) into each vial, allow to soak into filters for 4 hours and counted in on Perkin Elmer Tri-Carb 2900TR for 1 minute. […]

[3] = [^11C]-2 PET imaging in rhesus monkey; assay type: in vivo; settings: IV, averaged over 30-90 minutes post injection
Experimental: A fasted rhesus monkey (7-11 kg) is anesthetized with ketamine I.M. (15 mpk) and the monkey is placed in the PET camera bed. An I.V, catheter is inserted into the right saphenous vein. For arterial sampling, the right femoral area is aseptically prepared and an arterial catheter is placed and fixed with sutures.
Subsequent anesthesia is maintained with Propofol. Induction dose is 5 mg/kg I.V., followed by an infusion at 0.4-0.6 mg/kg/min for the duration of the scanning procedure. The animal is intubated and positioned inside the camera gantry supine, head first. Animal is maintained on ventilated medical grade air:oxygen gas mixture at approximately 23 respirations per minute for the duration of the study. Ventilation I:E ratio, volume and rate of respiration is adjusted to maintain CO2 levels about 40 mmHg and SpO2 levels 95 to 100%. A temperature probe, pulse oximeter, non-invasive blood pressure cuff, and end tidal CO2 monitor are connected. […]
Whole blood samples are collected via arterial catheter into Heparin tubes for determination of radioactivity in whole blood and plasma. Samples are centrifuged and 20 μl whole blood and plasma are counted 20, 40, 80, 100, 120, and 150 seconds post PET ligand injection. Samples of blood (0.8 ml) are taken for metabolite correction and determination of radioactivity in plasma and whole blood at 3, 5, 15, 30, 60, and 90 minutes. […]

[4] = biological target: T2, triton-extracted alpha-synuclein from PD Tissue (Homo sapiens, UniProt P37840); assay: Alpha-synuclein tissue homogenate binding assay (Assay 1), displacement of [^3H]-1000; settings: for Selectivity ratio (Assay 2/Assay 1): Aβ Tissue Ki / α-synuclein Tissue Ki; for Ki: read-out: α-synuclein Tissue Ki (Assay 1)
T2 construct: tissue Analytic Biological Services Inc; host or cells: human PD temporal cortex grey matter, Triton X-100 insoluble pellet

[5] = biological target: aggregated beta amyloid in AD tissue (Homo sapiens, UniProt P05067); assay: Competitive radioligand binding to pathological aggregated beta amyloid in AD tissue (Assay 2), displacement of [^3H]-105; settings: Aβ-rich AD frontal cortex homogenate, [^3H]-105, Kd 11.0 nM
Experimental: Frozen human brain samples of Alzheimer's disease (AD) were purchased from Analytic Biological Services Inc. The samples were post-mortem tissue from donors with clinical diagnosis of AD and much of the white matter was dissected out of the frontal cortex in order to enrich the tissue preparations for gray matter. Brain homogenates of gray matter enriched frontal cortex were prepared by homogenizing the tissue in ice cold Phosphate Buffered Saline (PBS), pH 7.4 at 80 mg wet weight tissue per 1 ml for 45 seconds at 4° C., on setting 16 of Polytron. The homogenate was further diluted with ice cold PBS to 30 mg wet weight tissue per 1 ml and homogenized for an additional minute as described above. Homogenates were aliquoted in 5 ml/tube and stored at −70° C. until use.
Radioligand [^3H]-105, prepared as described in ACS Med. Chem. Lett., Vol. 2, pages 498-502, was used in this assay.
For Assay 2 unlabeled test compounds were dissolved in DMSO at 10 mM. Dilutions of tests compounds to various concentrations were made in 100% DMSO at 1000× final assay concentration and 0.225 μl aliquots were dispensed into assay plates. Brain homogenates were diluted to 0.5 mg/ml from original 30 mg/ml volume in Assay Buffer, and 200 μl were added to the assay plate for a final concentration of 100 ug wet weight/assay well. [^3H]-105 was prepared at 10× final concentration in Assay Buffer plus 20% DMSO and 25 μl was added to the assay plate for final assay concentration of 3.0 nM. The plates were incubated at 37° C. for 90 minutes. Unbound and bound ligand were separated by filtration of bound onto GF/B filter plates (pre-treated for 30 min with 0.1% PEI) using a Packard Filtermate and washing away unbound with 2.5 mil ice cold 5 mM Tris at pH 7.4. Filter plates were dried for 1 hr at 57° C. and 50 μl Microscint was added to each well of the plate. The plates were counted for ^3H cpm for 1 min per well using PerkinElmer TopCount.

[6] = insoluble fraction of PD brain homogenate, [^3H]-1000 3.0 nM, Kd 0.90 nM

aggregated beta amyloid in AD tissue, sequence (P05067 672-711 limits assumed): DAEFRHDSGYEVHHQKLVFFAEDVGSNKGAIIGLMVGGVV

[3H]C([3H])([3H])OC[C@H]1CN(c2ncc(C=Cc3ccc(-n4ccnc4)nc3)cn2)CCN1c1ncccn1 [[^3H]-2, [^3H]-(R,E)-5-(2-(6-(1H-imidazol-1-yl)pyridin-3-yl)vinyl)-2-(3-(methoxymethyl)-4-(pyrimidin-2-yl)piperazin-1-yl)pyrimidine]
autoradiographic binding versus LB509 and AT8 immunoreactivity [1]: specific binding | Bmax [2]: 17.0 ± 5.2 nM

[11CH3]OC[C@H]1CN(c2ncc(/C=C/c3ccc(-n4ccnc4)nc3)cn2)CCN1c1ncccn1 [[^11C]-2]
distribution in monkey brain (PET image) [3]: suitable distribution

Cn1cc(-c2ncc(C#Cc3cnc(N4CCN(c5ncccn5)[C@@H](COCCOCCOCCF)C4)nc3)cn2)cn1 [Example 82, (R)-2-(3-((2-(2-(2-fluoroethoxy)ethoxy)ethoxy)methyl)-4-(pyrimidin-2-yl)piperazin-1-yl)-5-((2-(1-methyl-1H-pyrazol-4-yl)pyrimidin-5-yl)ethynyl)pyrimidine]
Selectivity ratio (Assay 2/Assay 1) [4]: 840 | Ki [4, 6]: 1.43 nM | Ki [5]: ≥ 1200 nM

COC[C@H]1CN(c2ccccn2)CCN1c1ncc(/C=C/c2ccc(-n3cnnc3)nc2)cn1 [Example 5, (R,E)-5-(2-(6-(4H-1,2,4-triazol-4-yl)pyridin-3-yl)vinyl)-2-(2-(methoxymethyl)-4-(pyridin-2-yl)piperazin-1-yl)pyrimidine]
Selectivity ratio (Assay 2/Assay 1) [4]: 7500 | Ki [4, 6]: 1.6 nM | Ki [5]: ≥ 12000 nM

Cn1cc(-c2ncc(C#Cc3cnc(N4CCN(c5ncccn5)[C@@H](COCCOCCF)C4)nc3)cn2)cn1 [Example 52, (R)-2-(3-((2-(2-fluoroethoxy)ethoxy)methyl)-4-(pyrimidin-2-yl)piperazin-1-yl)-5-((2-(1-methyl-1H-pyrazol-4-yl)pyrimidin-5-yl)ethynyl)pyrimidine]
Selectivity ratio (Assay 2/Assay 1) [4]: 857 | Ki [4]: 1.4 nM | Ki [5]: ≥ 1200 nM

COC[C@H]1CN(c2ncc(C#Cc3ccc(-n4cnnc4F)nc3)cn2)CCN1c1ncccn1 [Example 59, (R)-5-((6-(3-fluoro-4H-1,2,4-triazol-4-yl)pyridin-3-yl)ethynyl)-2-(3-(methoxymethyl)-4-(pyrimidin-2-yl)piperazin-1-yl)pyrimidine]
Selectivity ratio (Assay 2/Assay 1) [4]: 237 | Ki [4, 6]: 5.06 nM | Ki [5]: ≥ 1200 nM

Cn1cc(-c2ncc(C#Cc3cnc(N4CCN(c5ncncn5)[C@@H](COCCF)C4)nc3)cn2)cn1 [Example 44, (R)-2-(2-((2-fluoroethoxy)methyl)-4-(5-((2-(1-methyl-1H-pyrazol-4-yl)pyrimidin-5-yl)ethynyl)pyrimidin-2-yl)piperazin-1-yl)-1,3,5-triazine]
Selectivity ratio (Assay 2/Assay 1) [4]: 2105 | Ki [4, 6]: 0.57 nM | Ki [5]: ≥ 1200 nM

CNCC1CN(c2cc(F)ncn2)CCN1c1ncc(C#Cc2ccc(-c3cnco3)nc2)cn1 (stereo not drawn) [Example 65, 1-(4-(6-fluoropyrimidin-4-yl)-1-(5-((6-(oxazol-5-yl)pyridin-3-yl)ethynyl)pyrimidin-2-yl)piperazin-2-yl)-N-methylmethanamine]
Selectivity ratio (Assay 2/Assay 1) [4]: 1093 | Ki [4, 6]: 1.1 nM | Ki [5]: ≥ 1200 nM
